Broadly, the half-life is how long it takes for the measured level to halve. As usually defined, the inhibition is how much of the control response was suppressed. One may read the IC50 as the concentration at which inhibition is half-maximal. The Cmax is the peak of the concentration-time curve.

Activity calls are given as the source filed them. The calls are words filed in the database; no cut-off is given here.

The results in this text go back to ChEMBL document CHEMBL6182913, “Design of Potent Small-Molecule Stimulator of Interferon Gene Inhibitor and Stimulator of Interferon Gene Mutant-Specific Degrader” (J Med Chem, 2025).

Data set [1] can be described thus: Metabolic stability in mouse plasma assessed as half life in presence of NADPH by LC-MS/MS analysis. It counts as ADME, cell-free.
Data set [2] can be described thus: Cytotoxicity against human THP1-Blue ISG cells assessed as inhibition of cell growth at 10 uM incubated for 24 hrs by MTS assay relative to control. It counts as toxicity, cell-based. On the technique in general: Formazan colour is commonly taken as a measure of viable cells.
Data set [3] has as its target T1, Stimulator of interferon genes protein (Homo sapiens, UniProt Q86WV6, G230A/R293Q/R71H). As to the kind of experiment: Inhibition of cGAMP-induced STING HAQ mutant transfected in human THP1-Blue ISG cells preincubated with compound for 6 hrs followed by cGAMP addition and measured after 18 hrs by QUANTI-Blue based microplate reader analysis. Format: cell-based.

The target in data set [4] is T2, Stimulator of interferon genes protein (Homo sapiens, UniProt Q86WV6). In words: Inhibition of STING in human THP-1 cells assessed as inhibition of cGAMP-induced IFN-beta release at 0.05 to 0.5 uM pretreated with compound for 6 hrs followed by cGAMP addition and measured after 18 hrs by ELISA. Format: cell-based. Conditions: dose 0.05-0.5 µM, time 24.0 hrs. (In general: In an ELISA, binding on a coated surface is turned into a signal by an enzyme label.)
Target sequence in this assay (Q86WV6 whole entry): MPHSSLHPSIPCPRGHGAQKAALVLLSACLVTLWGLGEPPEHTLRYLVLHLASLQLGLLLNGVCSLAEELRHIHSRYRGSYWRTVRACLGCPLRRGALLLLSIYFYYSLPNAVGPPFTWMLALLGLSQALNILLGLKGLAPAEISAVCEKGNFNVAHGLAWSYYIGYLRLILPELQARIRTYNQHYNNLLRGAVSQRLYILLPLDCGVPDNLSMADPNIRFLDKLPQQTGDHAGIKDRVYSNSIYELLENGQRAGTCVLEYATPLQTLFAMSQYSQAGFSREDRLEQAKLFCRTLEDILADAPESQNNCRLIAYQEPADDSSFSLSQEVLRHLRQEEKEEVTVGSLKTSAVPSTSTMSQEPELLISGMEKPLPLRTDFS

Data set [5] addresses T3, Stimulator of interferon genes protein (Mus musculus) (UniProt Q3TBT3).
T3 sequence (whole entry): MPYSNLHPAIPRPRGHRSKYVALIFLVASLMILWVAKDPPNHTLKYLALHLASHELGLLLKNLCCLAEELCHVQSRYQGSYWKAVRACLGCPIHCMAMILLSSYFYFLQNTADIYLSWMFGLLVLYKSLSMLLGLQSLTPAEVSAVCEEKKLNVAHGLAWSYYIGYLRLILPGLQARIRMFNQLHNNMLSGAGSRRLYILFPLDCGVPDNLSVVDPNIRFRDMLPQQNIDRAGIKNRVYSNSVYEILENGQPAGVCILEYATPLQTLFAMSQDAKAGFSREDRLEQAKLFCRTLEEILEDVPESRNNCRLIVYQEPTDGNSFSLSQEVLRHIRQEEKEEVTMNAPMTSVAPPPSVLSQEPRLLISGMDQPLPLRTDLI
In words: In vivo inhibition of cGAMP-induced STING activation in autoimmune disease female C57BL/6 mouse model assessed as decrease in cGAMP-induced serum CXCL-10 level at 10 mg/kg, sc pretreated with compound for 2 hrs followed by cGAMP addition and measured after 3 hrs by ELISA. It counts as functional, organism-based.

Data set [6] in a line: Metabolic stability in mouse liver microsomes assessed as half life at 10 uM in presence of NADPH by LC-MS/MS analysis. It counts as ADME, Microsome. For orientation: Liver microsomes are a subcellular fraction often used to study metabolism.
For data set [7], the target named is T2, Stimulator of interferon genes protein. In words: Inhibition of cGAMP-induced STING S154 mutant transfected in human THP-1 cells preincubated with compound for 6 hrs followed by cGAMP addition and measured after 18 hrs by QUANTI-Luc based microplate reader analysis. Format: cell-based.
Target sequence in this assay (Q86WV6 whole entry, looked up, change not shown): as the sequence (Q86WV6 whole entry) above
Data set [8] has the same target. In words: Inhibition of STING activation in human THP1-Blue ISG cells assessed as decrease in cGAMP-induced STING phosphorylation at 0.1 to 1 uM preincubated with compound for 6 hrs followed by cGAMP addition and measured after 3 hrs by Western blotting analysis. As to conditions: dose 0.1-1 µM, time 9.0 hrs. Format: cell-based.
Target sequence in this assay (Q86WV6 whole entry): as the sequence (Q86WV6 whole entry) above
Data set [9] has as its target T3, Stimulator of interferon genes protein (Mus musculus). In words: In vivo inhibition of cGAMP-induced STING activation in autoimmune disease female C57BL/6 mouse model assessed as decrease in cGAMP-induced serum INF-beta level at 10 mg/kg, sc pretreated with compound for 2 hrs followed by cGAMP addition and measured after 3 hrs by ELISA. Format: functional, organism-based.

The nature of data set [10]: Cmax in mouse at 20 mg/kg, po by LC-MS/MS analysis. It counts as ADME, organism-based. As to conditions: in vivo, read-out: Cmax.
Data set [11] concerns the target T3, Stimulator of interferon genes protein (Mus musculus). In words: Inhibition of STING in mouse BMDM cells assessed as inhibition of cGAMP-induced IFN-beta release at 0.05 to 0.5 uM pretreated with compound for 6 hrs followed by cGAMP addition and measured after 18 hrs by ELISA. Format: cell-based. Conditions: dose 0.05-0.5 µM, time 24.0 hrs.
Data set [12] concerns the target T1, Stimulator of interferon genes protein. In words: Inhibition of diABZI-induced STING HAQ mutant transfected in human THP1-Blue ISG cells preincubated with compound for 6 hrs followed by diABZI addition and measured after 18 hrs by QUANTI-Blue based microplate reader analysis. Format: cell-based.
In data set [13] the target is T4, Stimulator of interferon genes protein (Mus musculus, UniProt Q3TBT3).
T4 sequence (Q3TBT3 whole entry): T3 sequence (whole entry)
As to the kind of experiment: Inhibition of cGAMP-induced mouse STING transfected in human THP-1 cells preincubated with compound for 6 hrs followed by cGAMP addition and measured after 18 hrs by QUANTI-Luc based microplate reader analysis. Format: cell-based.

For data set [14], the target named is T2, Stimulator of interferon genes protein. In words: Inhibition of STING activation in human THP1-Blue ISG cells assessed as decrease in cGAMP-induced IRF3 phosphorylation at 0.1 to 1 uM preincubated with compound for 6 hrs followed by cGAMP addition and measured after 3 hrs by Western blotting analysis. Format: cell-based. Conditions: dose 0.1-1 µM, time 9.0 hrs.
Target sequence in this assay (Q86WV6 whole entry): as the sequence (Q86WV6 whole entry) above

Data set [15] shares this target. In words: Inhibition of cGAMP-induced STING R232 mutant transfected human THP-1 cells preincubated with compound for 6 hrs followed by cGAMP addition and measured after 18 hrs by QUANTI-Luc based microplate reader analysis. Format: cell-based.
Target sequence in this assay (Q86WV6 whole entry, looked up, change not shown): as the sequence (Q86WV6 whole entry) above
Data set [16] is described as follows: Metabolic stability in human liver microsomes assessed as half life at 10 uM in presence of NADPH by LC-MS/MS analysis. Format: ADME, Microsome.
Data set [17] is described as follows: Metabolic stability in human plasma assessed as half life in presence of NADPH by LC-MS/MS analysis. It counts as ADME, cell-free.
Data set [18] has as its target T3, Stimulator of interferon genes protein (Mus musculus). As to the kind of experiment: Inhibition of STING in mouse BMDM cells assessed as inhibition of cGAMP-induced CXCL-10 release at 0.05 to 0.5 uM pretreated with compound for 6 hrs followed by cGAMP addition and measured after 18 hrs by ELISA. Format: cell-based. As to conditions: dose 0.05-0.5 µM, time 24.0 hrs.

T1 sequence (Q86WV6 whole entry R71H/G230A/R293Q): as the sequence (Q86WV6 whole entry) above, with R71H, G230A, R293Q counted along it

Turning to `CCS(=O)(=O)Nc1cc(NC(=O)c2ccc(-c3ccc4oc(C5C(C(N)=O)c6ccccc6C(=O)N5c5ccc(C(C)(C)C)c(Cl)c5)cc4c3)cc2)ccc1O` (stereo not drawn), in data set [1], the half-life is more than 4 h. For the same compound, the inhibition at 24 h, 10 µM in [2] was 11.1%. The concentration for half-maximal inhibition (IC50) in data set [3] came to 0.2 µM.
In the case of `COc1ccc2c(c1)C(=O)N(c1ccc(C(C)(C)C)c(Cl)c1)C(c1cc3cc(-c4ccc(C(=O)Nc5ccc(O)c(NS(C)(=O)=O)c5)cc4)ccc3o1)C2C(N)=O` (stereo not drawn), the inhibition entry in data set [4], in [5], in data set [8], in data set [9], in [11] and in data set [14] was “Active” in each case. Also, in data set [18], the inhibition result was “Active”. The half-life at 10 µM in data set [6] and in [16] was more than 1 h in each case. Further, the IC50 was 0.26 µM in [7]; 0.08 µM in data set [12]; 0.03 µM in data set [13]; 0.03 µM in [15]; 0.08 µM in data set [3]. The Cmax in data set [10] was 200 nM. Also, the half-life in [1] and in [17] was more than 4 h each time. In [2], the inhibition at 24 h, 10 µM was 37.3%.
For `CC(C)(C)c1ccc(N2C(=O)c3ccccc3C(C(N)=O)C2c2cc3cc(-c4ccc(C(=O)Nc5ccc(O)c(NS(C)(=O)=O)c5)cc4)ccc3o2)cc1Cl` (stereo not drawn), the inhibition entry in data set [4], in data set [5], in data set [8], in data set [9], in data set [11] and in [14] was “Active” throughout. Also, in data set [18], the inhibition result was “Active”. Also, the half-life at 10 µM in data set [6] and in [16] was more than 1 h throughout. For the same compound, the IC50 in [7] worked out at 0.21 µM; in data set [12], 0.11 µM; in data set [13] it was 0.02 µM; in data set [15], 0.03 µM; in data set [3] it was 0.1 µM. For the same compound, the Cmax in data set [10] turned out to be 200 nM. Also, the half-life in data set [17] was more than 4 h. Further, the inhibition at 24 h, 10 µM in data set [2] worked out at 36.5%.
